Test [1] has as its target T1, SARS-CoV-2 PLpro (nsp3 1564–1878) (Severe acute respiratory syndrome coronavirus 2, UniProt P0DTD1). The experiment in a line: biochemical. The settings on record: read-out: % of control remaining. Set-up: FRET-quenched peptide (Pro3) cleavage by PLpro, 10 min pre-incubation, slope over 20 min, normalised to no-compound control.
Test [2] addresses T1, SARS-CoV-2 PLpro (nsp3 1564–1878). The experiment in a line: biochemical. Set-up: FRET-quenched peptide (Pro3) cleavage by PLpro, 10 min pre-incubation, slope over 20 min, normalised to no-compound control. The settings on record: read-out: % of control remaining. The source holds these as a separate data set.

Structures are written as SMILES. Structures can show the parent of a compound that is named as a salt. Where two headings read alike, the source gives them in different places.

Consider `C[C@H](N)C(=O)O` [L-Alanine], for which the remaining activity at 3.75 µM in test [1] (Well no.=7749, high concentration screen) was 97.6%. Besides, the remaining activity at 1.25 µM in test [2] (Well no.=7749, low concentration screen) amounted to 95.2%.

Turning to `OC[C@H](O)C(O)[C@@H](O)CO` [L-Arabinitol], the remaining activity at 3.75 µM in test [1] (Well no.=6789, high concentration screen) was found to be 93.7%. The remaining activity at 1.25 µM in test [2] (Well no.=6789, low concentration screen) is 93.2%.

As to `N=C(N)NCCC[C@H](N)C(=O)O` [L-Arginine HCl], the remaining activity at 3.75 µM in test [1] (Well no.=4987, high concentration screen) worked out at 100%. For the same compound, the remaining activity at 1.25 µM in test [2] (Well no.=4987, low concentration screen) was 100%.

On to `N=C(N)NCCC[C@H](N)C(=O)O` [L-Arginine], for which the remaining activity at 3.75 µM was 98.7% in test [1] (Well no.=351, high concentration screen) and 99.2% in test [1] (Well no.=7205, high concentration screen). The remaining activity at 1.25 µM in test [2] (Well no.=351, low concentration screen) was 97.9%; in test [2] (Well no.=7205, low concentration screen) it was 102%.

`NC(=O)C[C@H](N)C(=O)O` [L-Asparagine]: the remaining activity at 3.75 µM in test [1] (Well no.=7741, high concentration screen) is 108%. The remaining activity at 1.25 µM in test [2] (Well no.=7741, low concentration screen) was 106%.

Take `N[C@@H](CC(=O)O)C(=O)O` [L-Aspartic acid]: the remaining activity at 3.75 µM in test [1] (Well no.=248, high concentration screen) was found to be 97.3%; in test [1] (Well no.=7683, high concentration screen), 106%. Also, in test [2] (Well no.=248, low concentration screen), the remaining activity at 1.25 µM was 96.2%.

Take `CCCCS(=N)(=O)CCC(N)C(=O)O` [L-Buthionine-sulfoximine]: the remaining activity at 3.75 µM in test [1] (Well no.=315, high concentration screen) stood at 97.7%. Further, the remaining activity at 1.25 µM in test [2] (Well no.=315, low concentration screen) was 97.6%.

`NC(N)=NOCC[C@H](N)C(=O)O` [L-Canavanine sulfate]: the remaining activity at 3.75 µM in test [1] (Well no.=382, high concentration screen) amounted to 96.4%. Further, the remaining activity at 1.25 µM in test [2] (Well no.=382, low concentration screen) came out at 88.7%.

For `NCCC(=O)N[C@@H](Cc1cnc[nH]1)C(=O)O` [L-Carnosine], in test [1] (Well no.=7017, high concentration screen), the remaining activity at 3.75 µM amounted to 111%. Besides, the remaining activity at 1.25 µM in test [2] (Well no.=7017, low concentration screen) stood at 112%.

As to `NC(=O)NCCC[C@H](N)C(=O)O` [L-Citrulline], in test [1] (Well no.=7159, high concentration screen), the remaining activity at 3.75 µM amounted to 102%. Also, the remaining activity at 1.25 µM in test [2] (Well no.=7159, low concentration screen) was determined as 108%.

Turning to `N[C@H]1CONC1=O` [L-Cycloserine], the remaining activity at 3.75 µM in test [1] (Well no.=187, high concentration screen) was 101%; in test [1] (Well no.=3185, high concentration screen), 102%. Also, the remaining activity at 1.25 µM in test [2] (Well no.=187, low concentration screen) is 104%; in test [2] (Well no.=3185, low concentration screen), 103%.

Regarding `N[C@@H](CS)C(=O)O` [L-Cysteine], the remaining activity at 3.75 µM in test [1] (Well no.=7783, high concentration screen) amounted to 109%. Moreover, in test [2] (Well no.=7783, low concentration screen), the remaining activity at 1.25 µM is 107%.

`N[C@@H](CS(=O)O)C(=O)O` [L-Cysteinesulfinic Acid]: the remaining activity at 3.75 µM in test [1] (Well no.=128, high concentration screen) was 96.5%. Moreover, the remaining activity at 1.25 µM in test [2] (Well no.=128, low concentration screen) stood at 93.4%.

As to `N[C@@H](CSSC[C@H](N)C(=O)O)C(=O)O` [L-Cystine], the remaining activity at 3.75 µM in test [1] (Well no.=6393, high concentration screen) was 106%. The remaining activity at 1.25 µM in test [2] (Well no.=6393, low concentration screen) was 104%.

With `N[C@@H](Cc1ccc(O)c(O)c1)C(=O)O` [L-DOPA], the remaining activity at 3.75 µM in test [1] (Well no.=6861, high concentration screen) amounted to 92.3%. In test [2] (Well no.=6861, low concentration screen), the remaining activity at 1.25 µM came to 91.2%.

As for `CNCC(O)c1ccc(O)c(O)c1` [L-Epinephrine (Bitartrate)], the remaining activity at 3.75 µM in test [1] (Well no.=6952, high concentration screen) stood at 94.1%. Further, the remaining activity at 1.25 µM in test [2] (Well no.=6952, low concentration screen) turned out to be 98%.

For the compound `N[C@@H](CCC(=O)O)C(=O)O` [L-Glutamic acid hydrochloride], the remaining activity at 3.75 µM in test [1] (Well no.=619, high concentration screen) was found to be 97.5%. The remaining activity at 1.25 µM in test [2] (Well no.=619, low concentration screen) stood at 102%.

Consider `N[C@@H](CCC(=O)O)C(=O)O` [L-Glutamic acid monosodium salt], for which the remaining activity at 3.75 µM in test [1] (Well no.=8573, high concentration screen) came out at 106%. The remaining activity at 1.25 µM in test [2] (Well no.=8573, low concentration screen) was determined as 103%.

As for `NC(=O)CC[C@H](N)C(=O)O` [L-Glutamine], the remaining activity at 3.75 µM is 93.2% in test [1] (Well no.=715, high concentration screen); 92.3% in test [1] (Well no.=6899, high concentration screen); 104% in test [1] (Well no.=7743, high concentration screen). Besides, the remaining activity at 1.25 µM in test [2] (Well no.=715, low concentration screen) is 96.1%; in test [2] (Well no.=6899, low concentration screen) it was 93.9%; in test [2] (Well no.=7743, low concentration screen) it was 102%.

In the case of `O=C1O[C@H]([C@@H](O)CO)[C@H](O)[C@@H]1O` [L-Gulono-1,4-lactone], the remaining activity at 3.75 µM in test [1] (Well no.=6771, high concentration screen) turned out to be 104%. Moreover, the remaining activity at 1.25 µM in test [2] (Well no.=6771, low concentration screen) came to 102%.

Regarding `N[C@@H](Cc1c[nH]cn1)C(=O)O` [L-Histidine hydrochloride], the remaining activity at 3.75 µM in test [1] (Well no.=422, high concentration screen) turned out to be 94.7%. Also, the remaining activity at 1.25 µM in test [2] (Well no.=422, low concentration screen) came out at 92.7%.

As for `NC(=O)NCCCC[C@H](N)C(=O)O` [L-Homocitrulline], in test [1], the remaining activity at 3.75 µM amounted to 89.3%. Moreover, the remaining activity at 1.25 µM in test [2] worked out at 101%.

As to `N[C@@H](CCO)C(=O)O` [L-Homoserine], in test [1] (Well no.=6821, high concentration screen), the remaining activity at 3.75 µM was 101%. Also, the remaining activity at 1.25 µM in test [2] (Well no.=6821, low concentration screen) stood at 100%.

On to `O=C(O)[C@@H]1C[C@@H](O)CN1` [L-Hydroxyproline], for which the remaining activity at 3.75 µM was determined as 102% in test [1] (Well no.=6735, high concentration screen) and 91.4% in test [1] (Well no.=8744, high concentration screen). Further, the remaining activity at 1.25 µM was found to be 101% in test [2] (Well no.=6735, low concentration screen) and 94.2% in test [2] (Well no.=8744, low concentration screen).

As for `CN1[C@@H]2CC[C@H]1C[C@@H](OC(=O)[C@H](CO)c1ccccc1)C2` [L-Hyoscyamine], the remaining activity at 3.75 µM was found to be 96.8% in test [1] (Well no.=424, high concentration screen) and 99.4% in test [1] (Well no.=6801, high concentration screen). In addition, the remaining activity at 1.25 µM in test [2] (Well no.=424, low concentration screen) amounted to 99.2%; in test [2] (Well no.=6801, low concentration screen), 103%.

As for `Nc1ccccc1C(=O)C[C@H](N)C(=O)O` [L-Kynurenine], the remaining activity at 3.75 µM in test [1] (Well no.=7221, high concentration screen) was found to be 92%. For the same compound, the remaining activity at 1.25 µM in test [2] (Well no.=7221, low concentration screen) was 95.5%.

With `C[C@H](O)C(=O)O` [L-Lactic acid], the remaining activity at 3.75 µM in test [1] (Well no.=7395, high concentration screen) was 106%. Further, the remaining activity at 1.25 µM in test [2] (Well no.=7395, low concentration screen) is 104%.

`CS(=N)(=O)CC[C@H](N)C(=O)O` (stereo partly drawn) [L-Methionine sulfoximine]: the remaining activity at 3.75 µM in test [1] (Well no.=1120, high concentration screen) worked out at 99.8%. Besides, in test [2] (Well no.=1120, low concentration screen), the remaining activity at 1.25 µM stood at 96.3%.

As for `N[C@@H](Cn1ccc(=O)c(O)c1)C(=O)O` [L-Mimosine], in test [1] (Well no.=3819, high concentration screen), the remaining activity at 3.75 µM was found to be 94.6%. Besides, the remaining activity at 1.25 µM in test [2] (Well no.=3819, low concentration screen) amounted to 92.9%.

Consider `CC(N)=NCCC[C@H](N)C(=O)O` [L-N5-(1-Iminoethyl)ornithine hydrochloride], for which, in test [1] (Well no.=967, high concentration screen), the remaining activity at 3.75 µM was determined as 101%. For the same compound, the remaining activity at 1.25 µM in test [2] (Well no.=967, low concentration screen) was 101%.

For `CCCCCCCCCCCCCCCC(=O)N[C@@H](COP(=O)(O)O)C(=O)O` [L-NASPA], the remaining activity at 3.75 µM in test [1] (Well no.=4499, high concentration screen) was found to be 94.8%. Besides, the remaining activity at 1.25 µM in test [2] (Well no.=4499, low concentration screen) stood at 91.6%.

Turning to `CCCC[C@H](N)C(=O)O` [L-Norleucine], the remaining activity at 3.75 µM in test [1] (Well no.=7733, high concentration screen) came to 106%. For the same compound, in test [2] (Well no.=7733, low concentration screen), the remaining activity at 1.25 µM came to 103%.

As to `CC(C)(S)[C@H](N)C(=O)O` [L-Penicillamine], the remaining activity at 3.75 µM in test [1] (Well no.=3332, high concentration screen) was found to be 99.5%. Also, the remaining activity at 1.25 µM in test [2] (Well no.=3332, low concentration screen) is 100%.

The values are drawn from paper PMC8286840, “Identifying SARS-CoV-2 antiviral compounds by screening for small molecule inhibitors of Nsp3 papain-like protease” (Biochemical Journal, 2021).
